Test results: the supplement of paper PMC10307832

Assays:
Assay in all cases: relative viability (nuclei count vs DMSO), 5 days (fraction); higher = more cells survive
NCI-H1915 = system: NCI-H1915
Procedure, shortened: (§1)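 Relative viability divides the nuclei count in treated wells by that in vehicle wells. Lung cancer cell lines were seeded in 1536-well plates, dosed by pin tool the next day, and fixed and stained after 5 days in one step with final 0.05% Triton X-100, 1% formaldehyde and 1 ug/ml Hoechst. Dosing was a single drug or a fixed anchor-drug dose plus five library-drug doses (not always all listed) in √10 steps, and values are medians of duplicate plates imaged at 4×.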

SW 900 = system: SW 900
Procedure, shortened: as §1

NCI-H1755 = system: NCI-H1755
Procedure, shortened: as §1

LCLC-103H = system: LCLC-103H
Procedure, shortened: as §1

NCI-H661 = system: NCI-H661
Procedure, shortened: as §1

NCI-H2347 = system: NCI-H2347
Procedure, shortened: as §1

NCI-H1651 = system: NCI-H1651
Procedure, shortened: as §1

NCI-H3122 = system: NCI-H3122
Procedure, shortened: as §1

NCI-H1792 = system: NCI-H1792
Procedure, shortened: as §1

NCI-H460 = system: NCI-H460
Procedure, shortened: as §1

PC-14 = system: PC-14
Procedure, shortened: as §1

LXF-289 = system: LXF-289
Procedure, shortened: as §1

NCI-H441 = system: NCI-H441
Procedure, shortened: as §1

SK-MES-1 = system: SK-MES-1
Procedure, shortened: as §1

RERF-LC-KJ = system: RERF-LC-KJ
Procedure, shortened: as §1

NCI-H650 = system: NCI-H650
Procedure, shortened: as §1

NCI-H596 = system: NCI-H596
Procedure, shortened: as §1

NCI-H520 = system: NCI-H520
Procedure, shortened: as §1

NCI-H322M = system: NCI-H322M
Procedure, shortened: as §1

NCI-H2170 = system: NCI-H2170
Procedure, shortened: as §1

NCI-H1563 = system: NCI-H1563
Procedure, shortened: as §1

NCI-H1355 = system: NCI-H1355
Procedure, shortened: as §1

O=C(O)c1ccc(-c2c[nH]c3ncc(-c4ccccc4)cc23)cc1C1CCCC1 + Nc1nc2[nH]cc(CCc3ccc(C(=O)N[C@@H](CCC(=O)O)C(=O)O)cc3)c2c(=O)[nH]1 [Pemetrexed] (partner 0.2 µM)
relative viability (NCI-H1915; first compound 0.04 µM): 0.493
relative viability (NCI-H1915; first compound 0.1265 µM): 0.454
relative viability (NCI-H1915; first compound 0.4 µM): 0.481
relative viability (NCI-H1915; first compound 1.265 µM): 0.448
relative viability (SW 900; first compound 0.04 µM): 0.476
relative viability (SW 900; first compound 0.1265 µM): 0.471
relative viability (SW 900; first compound 0.4 µM): 0.451
relative viability (SW 900; first compound 1.265 µM): 0.473
relative viability (NCI-H1755; first compound 0.04 µM): 0.412
relative viability (NCI-H1755; first compound 0.1265 µM): 0.449
relative viability (NCI-H1755; first compound 0.4 µM): 0.405
relative viability (NCI-H1755; first compound 1.265 µM): 0.436
relative viability (LCLC-103H; first compound 0.04 µM): 0.487
relative viability (LCLC-103H; first compound 0.1265 µM): 0.463
relative viability (LCLC-103H; first compound 0.4 µM): 0.495
relative viability (LCLC-103H; first compound 1.265 µM): 0.481
relative viability (NCI-H661; first compound 0.04 µM): 0.881
relative viability (NCI-H661; first compound 0.1265 µM): 0.918
relative viability (NCI-H661; first compound 0.4 µM): 0.92
relative viability (NCI-H661; first compound 1.265 µM): 0.892
relative viability (NCI-H2347; first compound 0.04 µM): 0.435
relative viability (NCI-H2347; first compound 0.1265 µM): 0.453
relative viability (NCI-H2347; first compound 0.4 µM): 0.454
relative viability (NCI-H2347; first compound 1.265 µM): 0.398
relative viability (NCI-H1651; first compound 0.04 µM): 0.482
relative viability (NCI-H1651; first compound 0.1265 µM): 0.603
relative viability (NCI-H1651; first compound 0.4 µM): 0.641
relative viability (NCI-H1651; first compound 1.265 µM): 0.527
relative viability (NCI-H3122; first compound 0.04 µM): 0.204
relative viability (NCI-H3122; first compound 0.1265 µM): 0.202
relative viability (NCI-H3122; first compound 0.4 µM): 0.217
relative viability (NCI-H3122; first compound 1.265 µM): 0.21
relative viability (NCI-H1792; first compound 0.04 µM): 0.713
relative viability (NCI-H1792; first compound 0.1265 µM): 0.968
relative viability (NCI-H1792; first compound 0.4 µM): 1.05
relative viability (NCI-H1792; first compound 1.265 µM): 0.734
relative viability (NCI-H460; first compound 0.04 µM): 0.0611
relative viability (NCI-H460; first compound 0.1265 µM): 0.0579
relative viability (NCI-H460; first compound 0.4 µM): 0.0617
relative viability (NCI-H460; first compound 1.265 µM): 0.0609
relative viability (PC-14; first compound 0.04 µM): 0.135
relative viability (PC-14; first compound 0.1265 µM): 0.143
relative viability (PC-14; first compound 0.4 µM): 0.145
relative viability (PC-14; first compound 1.265 µM): 0.125
relative viability (LXF-289; first compound 0.04 µM): 0.912
relative viability (LXF-289; first compound 0.1265 µM): 0.905
relative viability (LXF-289; first compound 0.4 µM): 0.786
relative viability (LXF-289; first compound 1.265 µM): 0.627
relative viability (NCI-H441; first compound 0.04 µM): 0.33
relative viability (NCI-H441; first compound 0.1265 µM): 0.285
relative viability (NCI-H441; first compound 0.4 µM): 0.256
relative viability (NCI-H441; first compound 1.265 µM): 0.235
relative viability (SK-MES-1; first compound 0.04 µM): 0.959
relative viability (SK-MES-1; first compound 0.1265 µM): 1.1
relative viability (SK-MES-1; first compound 0.4 µM): 0.941
relative viability (SK-MES-1; first compound 1.265 µM): 0.722
relative viability (RERF-LC-KJ; first compound 0.04 µM): 0.466
relative viability (RERF-LC-KJ; first compound 0.1265 µM): 0.469
relative viability (RERF-LC-KJ; first compound 0.4 µM): 0.481
relative viability (RERF-LC-KJ; first compound 1.265 µM): 0.481
relative viability (NCI-H650; first compound 0.04 µM): 0.941
relative viability (NCI-H650; first compound 0.1265 µM): 0.975
relative viability (NCI-H650; first compound 0.4 µM): 0.873
relative viability (NCI-H650; first compound 1.265 µM): 0.782
relative viability (NCI-H596; first compound 0.04 µM): 0.472
relative viability (NCI-H596; first compound 0.1265 µM): 0.53
relative viability (NCI-H596; first compound 0.4 µM): 0.531
relative viability (NCI-H596; first compound 1.265 µM): 0.479
relative viability (NCI-H520; first compound 0.04 µM): 0.789
relative viability (NCI-H520; first compound 0.1265 µM): 0.633
relative viability (NCI-H520; first compound 0.4 µM): 0.655
relative viability (NCI-H520; first compound 1.265 µM): 0.474
relative viability (NCI-H322M; first compound 0.04 µM): 0.632
relative viability (NCI-H322M; first compound 0.1265 µM): 0.586
relative viability (NCI-H322M; first compound 0.4 µM): 0.589
relative viability (NCI-H322M; first compound 1.265 µM): 0.547
relative viability (NCI-H2170; first compound 0.04 µM): 0.265
relative viability (NCI-H2170; first compound 0.1265 µM): 0.263
relative viability (NCI-H2170; first compound 0.4 µM): 0.247
relative viability (NCI-H2170; first compound 1.265 µM): 0.282
relative viability (NCI-H1563; first compound 0.04 µM): 0.698
relative viability (NCI-H1563; first compound 0.1265 µM): 0.948
relative viability (NCI-H1563; first compound 0.4 µM): 0.789
relative viability (NCI-H1563; first compound 1.265 µM): 0.892
relative viability (NCI-H1355; first compound 0.04 µM): 0.991
relative viability (NCI-H1355; first compound 0.1265 µM): 1.13
relative viability (NCI-H1355; first compound 0.4 µM): 1.12
relative viability (NCI-H1355; first compound 1.265 µM): 0.756
